# From patent publication US20120122727A1, “IN VITRO METHOD FOR PREDICTING WHETHER A COMPOUND IS GENOTOXIC IN VIVO” (priority 2009, published 2012)
# Test system: primary mouse hepatocytes
# Experiment: Gene expression (Affymetrix Mouse Genome 430 2.0) in primary mouse hepatocytes, true vs false GTX, 24 h and 48 h
# Settings: log2, corrected for vehicle control
smiles,measurement,setting,value
"CC(=O)Nc1ccc2c(c1)Cc1ccccc1-2 [2-AAF, 2-Acetylaminofluorene]",Gene expression data AF000969 (Cadps2),24 h average,−0.5371
same,Gene expression data AF022072 (Grb10),24 h average,0.5527
same,Gene expression data AF065917 (Lif),24 h average,−0.1242
same,Gene expression data AF204959 (Cyp3a25 /// LOC622249),24 h average,0.2152
same,Gene expression data AF297615 (Ggta1),24 h average,0.03187
same,Gene expression data AI594683 (Dmn),24 h average,−0.2452
same,Gene expression data AI596632 (Ptprg /// LOC632664),24 h average,−0.0981
same,Gene expression data AI987929 (Ndrg1),24 h average,0.8432
same,Gene expression data AK004419 (Fbxl17),24 h average,−0.168
same,Gene expression data AK005731 (1700007K13Rik),24 h average,0.08277
same,Gene expression data AK007766 (1810044A24Rik),24 h average,0.01003
same,Gene expression data AK007854 (1810053B23Rik),24 h average,−0.9008
same,Gene expression data AK009736 (Gpr137b /// LOC664862 /// LOC673335),24 h average,−0.00723
same,Gene expression data AK010447 (Smyd3),24 h average,−0.1751
same,Gene expression data AK014608 (4632434l11Rik),24 h average,−0.09823
same,Gene expression data AK019979 (2610528E23Rik),24 h average,0.3248
same,Gene expression data AV095209 (Mthfd1l),24 h average,0.4403
same,Gene expression data AV141095 (1110033M05Rik),24 h average,−0.2881
same,Gene expression data AV173571 (1700106N22Rik),24 h average,−0.04133
same,Gene expression data AV219418 (Ldhb),24 h average,−0.3695
same,Gene expression data AV223474 (Zdhhc14),24 h average,−0.4459
same,Gene expression data AV298304 (Homez),24 h average,−0.1831
same,Gene expression data AV327248 (Zfp365 /// LOC674611),24 h average,0.0668
same,Gene expression data AV377066 (9130221J18Rik),24 h average,−0.6586
same,Gene expression data AW240761 (Tbc1d5),24 h average,−0.0924
same,Gene expression data AW543460 (Pard3),24 h average,−0.3156
same,Gene expression data AW543723,24 h average,0.1065
same,Gene expression data AW986246 (Maoa),24 h average,0.01853
same,Gene expression data BB027848 (4732466D17Rik),24 h average,−0.252
same,Gene expression data BB043558 (9230114K14Rik),24 h average,−0.1205
same,Gene expression data BB275142 (AW456874),24 h average,−0.02303
same,Gene expression data BB308836 (Ppm1l),24 h average,−0.1499
same,Gene expression data BB318221 (Zdhhc14),24 h average,−0.411
same,Gene expression data BB463610 (4632434l11Rik),24 h average,−0.3778
same,Gene expression data BB526605 (Mipol1),24 h average,0.3466
same,Gene expression data BB770528 (Rai2),24 h average,−0.5052
same,Gene expression data BB821363 (Scfd2),24 h average,−0.1216
same,Gene expression data BC004827 (Psat1),24 h average,0.2797
same,Gene expression data BC008626 (Icam1),24 h average,−0.6353
same,Gene expression data BC010462 (BC010462),24 h average,−0.1475
same,Gene expression data BC012247 (Dcxr),24 h average,−0.08253
same,Gene expression data BC012260 (Psmf1),24 h average,−0.646
same,Gene expression data BC015270 (Hist2h3c2),24 h average,−0.1327
same,Gene expression data BC016073 (Cdkal1),24 h average,−0.1464
same,Gene expression data BC016265 (Ube2e2),24 h average,−0.3984
same,Gene expression data BC019882 (Acaa1b),24 h average,1.3218
same,Gene expression data BC025501 (Aaas),24 h average,−0.1475
same,Gene expression data BC025837 (Sbk1),24 h average,−0.2976
same,Gene expression data BC025915 (Cova1),24 h average,−0.1568
same,Gene expression data BC026422 (Tgm1),24 h average,−0.1664
same,Gene expression data BF719766 (Thyn1),24 h average,−0.0442
same,Gene expression data BG065754 (Ccng1),24 h average,0.0569
same,Gene expression data BG066903 (Kif16b),24 h average,−0.2125
same,Gene expression data BG069873 (Gnb1l),24 h average,−0.2747
same,Gene expression data BG070887 (Gtdc1),24 h average,−0.01607
same,Gene expression data BG076151 (Ppm1d),24 h average,−0.1219
same,Gene expression data BG261907 (Large),24 h average,−0.2502
same,Gene expression data BI651416 (Cdc42bpg),24 h average,0.1552
same,Gene expression data BI660702 (Ell3),24 h average,0.1219
same,Gene expression data BM198879 (Ercc5),24 h average,−0.2382
same,Gene expression data BM230508 (A030007D23Rik),24 h average,0.282
same,Gene expression data NM_007987 (Fas),24 h average,0.06923
same,Gene expression data NM_008522 (Ltf),24 h average,0.1277
same,Gene expression data NM_008576 (Abcc1),24 h average,0.3321
same,Gene expression data NM_011176 (St14),24 h average,−0.03387
same,Gene expression data NM_011316 (Saa4),24 h average,−0.3157
same,Gene expression data NM_012006 (Acot1),24 h average,1.9403
same,Gene expression data NM_013866 (Zfp385),24 h average,−0.136
same,Gene expression data NM_018770 (Igsf4a),24 h average,−0.2065
same,Gene expression data NM_021451 (Pmaip1),24 h average,−0.7054
same,Gene expression data NM_025770 (Atg10),24 h average,0.01663
same,Gene expression data NM_028803 (Gbe1),24 h average,−0.2716
same,Gene expression data NM_030697 (Ankrd47),24 h average,−0.252
same,Gene expression data NM_053168 (Trim11),24 h average,−0.2676
same,Gene expression data NM_134188 (Acot2),24 h average,0.597
same,Gene expression data Y15910 (Diap2),24 h average,−0.366
same,Gene expression AA561726 average,48 h,−0.7419
same,Gene expression AF000969 average,48 h,−0.8319
same,Gene expression AF022072 average,48 h,0.0482
same,Gene expression AF033112 average,48 h,−0.03947
same,Gene expression AF055573 average,48 h,−0.2895
same,Gene expression AF069954 average,48 h,0.3518
same,Gene expression AF297615 average,48 h,−0.6791
same,Gene expression AF335325 average,48 h,−0.3088
same,Gene expression AI594683 average,48 h,−0.05213
same,Gene expression AI747296 average,48 h,−0.5003
same,Gene expression AK005731 average,48 h,0.01113
same,Gene expression AK007854 average,48 h,1.4303
same,Gene expression AK010447 average,48 h,−0.3256
same,Gene expression AK010738 average,48 h,0.1851
same,Gene expression AK014608 average,48 h,−0.01987
same,Gene expression AK017734 average,48 h,0.0451
same,Gene expression AK018383 average,48 h,0.2303
same,Gene expression AK019979 average,48 h,−0.5099
same,Gene expression AV095209 average,48 h,−0.3718
same,Gene expression AV141095 average,48 h,−0.5829
same,Gene expression AV173869 average,48 h,−0.3782
same,Gene expression AV216768 average,48 h,−0.6814
same,Gene expression AV219418 average,48 h,0.7839
same,Gene expression AV221299 average,48 h,0.6759
same,Gene expression AV246296 average,48 h,−0.54
same,Gene expression AV251625 average,48 h,0.07103
same,Gene expression AV254764 average,48 h,−0.006467
same,Gene expression AV327248 average,48 h,−0.09177
same,Gene expression BB009155 average,48 h,−0.5851
same,Gene expression BB027848 average,48 h,0.5378
same,Gene expression BB043558 average,48 h,0.196
same,Gene expression BB046347 average,48 h,0.2178
same,Gene expression BB140436 average,48 h,0.4693
same,Gene expression BB204486 average,48 h,−0.6445
same,Gene expression BB223872 average,48 h,0.3216
same,Gene expression BB246912 average,48 h,−0.2264
same,Gene expression BB275142 average,48 h,0.1102
same,Gene expression BB458460 average,48 h,−0.3368
same,Gene expression BB463610 average,48 h,0.0872
same,Gene expression BB730977 average,48 h,−0.9937
same,Gene expression BB743970 average,48 h,0.7664
same,Gene expression BB770528 average,48 h,−0.5594
same,Gene expression BB781615 average,48 h,−0.1164
same,Gene expression BC003284 average,48 h,0.02563
same,Gene expression BC004827 average,48 h,−0.2015
same,Gene expression BC005552 average,48 h,−0.126
same,Gene expression BC006713 average,48 h,0.4411
same,Gene expression BC010318 average,48 h,−0.02213
same,Gene expression BC012247 average,48 h,0.6286
same,Gene expression BC012955 average,48 h,0.05073
same,Gene expression BC013893 average,48 h,0.4936
same,Gene expression BC017615 average,48 h,−0.5229
same,Gene expression BC019379 average,48 h,−1.215
same,Gene expression BC019882 average,48 h,1.577
same,Gene expression BC021352 average,48 h,−1.127
same,Gene expression BC022148 average,48 h,0.456
same,Gene expression BC025169 average,48 h,−0.2222
same,Gene expression BC026131 average,48 h,−0.3489
same,Gene expression BC027026 average,48 h,0.8063
same,Gene expression BC027121 average,48 h,−0.1341
same,Gene expression BC027185 average,48 h,0.4588
same,Gene expression BE956581 average,48 h,0.1808
same,Gene expression BF719766 average,48 h,0.2652
same,Gene expression BG065754 average,48 h,0.3738
same,Gene expression BG066491 average,48 h,−1.541
same,Gene expression BG076151 average,48 h,−0.3358
same,Gene expression BG076333 average,48 h,−0.1306
same,Gene expression BG797099 average,48 h,−0.06173
same,Gene expression BG967046 average,48 h,0.0391
same,Gene expression BI651416 average,48 h,0.3502
same,Gene expression BI966443 average,48 h,0.1201
same,Gene expression BM198879 average,48 h,−0.2887
same,Gene expression BM200015 average,48 h,0.5127
same,Gene expression BM230508 average,48 h,0.0745
same,Gene expression BM936480 average,48 h,0.9169
same,Gene expression BQ174991 average,48 h,−0.3426
same,Gene expression L21027 average,48 h,−0.729
same,Gene expression NM_007556 average,48 h,0.02703
same,Gene expression NM_007980 average,48 h,1.503
same,Gene expression NM_007987 average,48 h,0.516
same,Gene expression NM_008522 average,48 h,0.1967
same,Gene expression NM_008935 average,48 h,0.02783
same,Gene expression NM_009897 average,48 h,−0.003733
same,Gene expression NM_011075 average,48 h,−0.5522
same,Gene expression NM_011176 average,48 h,−0.2632
same,Gene expression NM_011316 average,48 h,0.4369
same,Gene expression NM_012006 average,48 h,2.771
same,Gene expression NM_013642 average,48 h,−0.6535
same,Gene expression NM_013738 average,48 h,−0.2396
same,Gene expression NM_013929 average,48 h,−0.04163
same,Gene expression NM_018881 average,48 h,0.9061
same,Gene expression NM_019738 average,48 h,−0.193
same,Gene expression NM_030697 average,48 h,−0.4783
same,Gene expression NM_053122 average,48 h,−0.106
same,Gene expression NM_134147 average,48 h,0.04213
same,Gene expression NM_134188 average,48 h,0.9088
same,Gene expression X62701 average,48 h,−0.356
